Where only a bound is given, the exact number is not on record here.

The record followed here is patent EP2809669B1, “FUSED PYRROLEDICARBOXAMIDES AND THEIR USE AS PHARMACEUTICALS” (SANOFI, priority 2012, dated 2013).

In one assay the test system is upper airway. Description: Effect on upper airway collapsibility in the anesthetized pig (negative pressure challenge). The class given is in vivo. As to conditions: 100 µg/kg intravenous bolus injection, negative pressure -150 mbar. From the text: Effect on upper airway collapsibility in the pig Pharmacological efficacy against obstructive apneas was investigated in chloralose-urethane anesthetized pigs (weight range 20 to 35 kg), a large-animal model for obstructive apneas. Negative pressure generated by a negative pressure device was applied with a cannula to the upper part of the trachea for at least three breaths so that the upper airway was exposed to the negative pressure generated by the device. This caused an upper airway collapse as in an obstructive apnea in control animals treated with vehicle only, and in animals of the treatment group before the test compound was administered (baseline situation). Different levels of negative pressure were used to cause a collapse of the upper airway (-50 mbar, -100 mbar and -150 mbar). These negative pressure challenges were repeated several times before vehicle or test compound was given, and at regular intervals after administration of vehicle or test compound. Whether the upper airway was collapsed or open, was judged by airflow measurement and by the tracheal pressure in the cannula inserted into the upper trachea. In case the upper airway was collapsed by the negative pressure, airflow to the negative pressure device was close to zero. As a second parameter tracheal pressure approached the negative pressure generated by the device during upper airway collapse. Test compounds were administered by intravenous bolus injection. After administration of an effective test compound the upper airway was open during the negative pressure challenges, i.e. not collapsed, as indicated by airflow to the negative pressure device and the fact that tracheal pressure now approached atmospheric pressure in the inspiratory phase where upper airway muscles are activated. In vehicle-treated controls upper airway collapse occurred at every negative pressure challenge at -50 mbar, -100 mbar and -150 mbar. In Table 17, the time after administration of compounds of the formula I from the examples above is shown during which no upper airway collapse occurred (time of inhibition of collapsibility) at a negative pressure of -150 mbar. […]

Another assay addresses T1, hERG channel (Homo sapiens, UniProt Q12809).
T1 construct: expressed in transfected cells
Briefly: Determination of the effect on the hERG channel in CHO cells (whole-cell patch clamp). The assay is classed as cell-based. The conditions noted are these: CHO cells stably expressing hERG, room temperature, read-out: IC50 value [µM] for hERG inhibition. The protocol:
Determination of the effect on the hERG channel in CHO cells
An inhibition of the hERG (human Ether-a-go-go-Related Gene) potassium channel is unwanted because it can lead to dangerous arrhythmias. The effect of compounds of the formula I on the cloned human cardiac hERG channel was evaluated in an in vitro model using a whole-cell patch-clamping technique. CHO (Chinese hamster ovary) cells stably expressing hERG, the potassium channel underlying IKr currents in human hearts, were grown in HAM's F-12 media supplemented with 10 % fetal bovine serum, 1 x penicillin/streptomycin and 500 µg/ml G418 (Invitrogen, Carlsbad, CA, USA) in an atmosphere of 95 % air and 5 % carbon dioxide. Cells used for patch-clamping were seeded on glass or plastic coverslips 12 to 36 hours before use. hERG channel currents were recorded at room temperature using the whole-cell configuration of the patch clamp technique with an Axopatch 200B amplifier (Axon Instruments, Foster City, CA, USA). Briefly, electrodes (3 to 6 MΩ resistance) were fashioned from TW150F glass capillary tubes (World Precision Instruments, Sarasota, FL, USA) and filled with pipette solution (containing 120 mM potassium aspartate, 20 mM potassium chloride, 4 mM adenosine triphosphate disodium salt, 5 mM HEPES, 1 mM magnesium chloride; pH adjusted to 7.2 with potassium hydroxide). hERG currents were initiated by a positive voltage pulse (20 mV) followed by a negative pulse (-40 mV) and were recorded for off-line analyses. Once hERG current from a cell perfused with external solution (containing 130 mM sodium chloride, 5 mM potassium chloride, 2.8 mM sodium acetate, 1 mM magnesium chloride, 10 mM HEPES, 10 mM glucose, 1 mM calcium chloride; pH adjusted to 7.4 with sodium hydroxide) without the test compound, i.e. control solution, was stabilized, the cell was perfused with external solution containing the test compound at specific concentrations. For each concentration from each cell, peak amplitude of the steady-state hERG tail current at -40 mV was measured in picoAmpere (pA). The peak amplitude in pA for each concentration (up to a maximum concentration of 10 µM) was compared with that for the control solution from the same cell and expressed as percent value of the control. From the percent values at multiple concentrations, IC50 values for inhibition of hERG can be determined.
For orientation: hERG is a cardiac potassium channel; its block is linked to QT prolongation.

T1 sequence (Q12809 whole entry): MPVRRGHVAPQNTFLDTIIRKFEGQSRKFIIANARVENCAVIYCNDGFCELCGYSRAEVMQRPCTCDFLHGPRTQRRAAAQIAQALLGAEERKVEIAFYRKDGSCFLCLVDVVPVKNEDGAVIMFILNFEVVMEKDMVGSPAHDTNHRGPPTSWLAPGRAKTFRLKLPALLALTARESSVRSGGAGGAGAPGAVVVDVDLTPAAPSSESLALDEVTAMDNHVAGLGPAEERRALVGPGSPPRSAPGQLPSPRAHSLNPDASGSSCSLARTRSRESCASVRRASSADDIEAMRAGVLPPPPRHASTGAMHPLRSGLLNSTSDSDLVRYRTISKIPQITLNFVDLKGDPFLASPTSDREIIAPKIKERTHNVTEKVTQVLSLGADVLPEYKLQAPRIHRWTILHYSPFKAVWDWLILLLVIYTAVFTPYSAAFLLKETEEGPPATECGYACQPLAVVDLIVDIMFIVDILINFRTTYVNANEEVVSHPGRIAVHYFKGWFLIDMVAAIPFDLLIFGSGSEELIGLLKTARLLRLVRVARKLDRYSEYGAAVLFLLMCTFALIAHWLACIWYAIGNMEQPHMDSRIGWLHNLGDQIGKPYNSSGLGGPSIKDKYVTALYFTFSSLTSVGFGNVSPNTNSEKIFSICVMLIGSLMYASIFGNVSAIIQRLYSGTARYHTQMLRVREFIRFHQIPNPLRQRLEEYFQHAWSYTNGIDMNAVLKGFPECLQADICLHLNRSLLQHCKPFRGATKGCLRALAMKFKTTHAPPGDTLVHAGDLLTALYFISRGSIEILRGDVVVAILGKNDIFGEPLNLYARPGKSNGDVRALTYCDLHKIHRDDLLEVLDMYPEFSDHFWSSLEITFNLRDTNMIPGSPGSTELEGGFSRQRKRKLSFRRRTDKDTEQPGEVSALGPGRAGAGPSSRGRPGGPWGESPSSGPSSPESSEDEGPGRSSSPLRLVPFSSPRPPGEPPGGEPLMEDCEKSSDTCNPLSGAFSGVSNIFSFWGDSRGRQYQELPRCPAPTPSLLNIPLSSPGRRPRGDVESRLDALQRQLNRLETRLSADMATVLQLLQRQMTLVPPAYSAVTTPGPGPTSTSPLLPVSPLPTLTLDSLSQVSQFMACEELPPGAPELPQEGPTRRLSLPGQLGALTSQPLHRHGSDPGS

Turning to `CCOC(=O)[C@H](C)N(C)C(=O)c1cc(C(=O)N[C@H](CC)c2ccccc2)c2n1CCOC2` [16l, (S)-2-{Methyl-[8-((R)-1-phenyl-propylcarbamoyl)-3,4-dihydro-1H-pyrrolo[2,1-c][1,4]oxazine-6-carbonyl]-amino}-propionic acid ethyl ester], in the assay on upper airway, the “Time of inhibition of collapsibility (at -150 mbar)” value is reported as “for >120 min”. The IC50 at hERG channel was above 10 µM.
Taken in the same sequence, the figures for `CC[C@@H](NC(=O)c1cc(C(=O)N2CCC[C@@H]2C(=O)OC(C)C)n2c1COCC2)c1ccccc1` [16n, (R)-1-[8-((R)-1-Phenyl-propylcarbamoyl)-3,4-dihydro-1H-pyrrolo[2,1-c][1,4]oxazine-6-carbonyl]-pyrrolidine-2-carboxylic acid isopropyl ester] were “for 120 min” and above 10 µM.

The term IC50 denotes the concentration needed to halve the response being measured.
